Assay results from paper doi:10.1101/2022.03.02.482641v1 (biorxiv, 2022).

Tests used:
Format in all cases: biochemical
[1] = target: T1, zfSARM1 (zebrafish SARM1, zfSARM1 w.t.) (Danio rerio, UniProt F1QWA8); test: NADase kinetics, HPLC, substrate inhibition fit; details: apparent substrate inhibition by NAD+
T1 sequence (F1QWA8 22-713): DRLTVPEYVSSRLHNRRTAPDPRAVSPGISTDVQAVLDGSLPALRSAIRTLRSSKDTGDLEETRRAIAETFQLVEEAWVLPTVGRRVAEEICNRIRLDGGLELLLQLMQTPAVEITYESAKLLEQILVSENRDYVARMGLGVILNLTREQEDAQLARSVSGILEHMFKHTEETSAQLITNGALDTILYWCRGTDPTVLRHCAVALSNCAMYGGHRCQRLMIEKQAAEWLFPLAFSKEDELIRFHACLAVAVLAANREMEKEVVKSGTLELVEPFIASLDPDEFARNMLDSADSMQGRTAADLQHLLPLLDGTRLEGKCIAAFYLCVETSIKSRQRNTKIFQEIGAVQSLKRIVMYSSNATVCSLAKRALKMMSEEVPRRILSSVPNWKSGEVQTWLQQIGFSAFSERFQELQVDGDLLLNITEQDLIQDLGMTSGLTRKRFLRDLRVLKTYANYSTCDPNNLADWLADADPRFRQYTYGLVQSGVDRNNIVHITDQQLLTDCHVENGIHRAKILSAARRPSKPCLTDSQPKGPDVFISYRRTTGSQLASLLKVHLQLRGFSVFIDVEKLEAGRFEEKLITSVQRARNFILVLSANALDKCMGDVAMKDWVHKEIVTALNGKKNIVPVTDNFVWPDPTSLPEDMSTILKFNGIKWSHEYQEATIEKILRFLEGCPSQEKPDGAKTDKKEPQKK

[2] = target: T2, hSARM1 (hSARM1 w.t., near-intact, 26ERL...GPT724) (Homo sapiens, UniProt Q6SZW1); test: NADase kinetics, HPLC, substrate inhibition fit; details: apparent substrate inhibition by NAD+
T2 sequence (Q6SZW1 26-724): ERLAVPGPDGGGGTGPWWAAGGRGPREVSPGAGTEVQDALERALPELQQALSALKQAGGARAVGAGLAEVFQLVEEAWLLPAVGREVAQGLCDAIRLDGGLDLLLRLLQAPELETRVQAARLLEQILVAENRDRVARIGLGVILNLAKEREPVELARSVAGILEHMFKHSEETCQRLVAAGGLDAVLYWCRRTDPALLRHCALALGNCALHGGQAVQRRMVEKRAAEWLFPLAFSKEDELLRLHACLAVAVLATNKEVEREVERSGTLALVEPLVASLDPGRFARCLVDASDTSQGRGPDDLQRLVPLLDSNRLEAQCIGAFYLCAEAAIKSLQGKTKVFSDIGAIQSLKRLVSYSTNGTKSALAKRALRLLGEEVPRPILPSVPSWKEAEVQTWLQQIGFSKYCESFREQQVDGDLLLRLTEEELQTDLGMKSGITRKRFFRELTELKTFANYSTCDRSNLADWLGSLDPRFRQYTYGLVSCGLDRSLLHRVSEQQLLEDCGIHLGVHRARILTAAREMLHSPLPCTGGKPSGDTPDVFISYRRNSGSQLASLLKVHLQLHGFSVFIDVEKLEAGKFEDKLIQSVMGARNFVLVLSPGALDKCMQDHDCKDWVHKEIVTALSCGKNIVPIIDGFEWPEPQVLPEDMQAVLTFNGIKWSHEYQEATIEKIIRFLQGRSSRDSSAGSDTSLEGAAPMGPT

[3] = target: T1, zfSARM1 (zebrafish SARM1, zfSARM1 w.t.); test: HPLC of ADPR formation
[4] = target: T2, hSARM1 (hSARM1 w.t., near-intact, 26ERL...GPT724); test: HPLC of ADPR formation

Row | SMILES | Ki [1] | Ki [2] | EC50 [3] | IC50 [4]
1 | NC(=O)c1ccc[n+]([C@@H]2O[C@H](COP(=O)([O-])OP(=O)(O)OC[C@H]3O[C@@H](n4cnc5c(N)ncnc54)[C@H](O)[C@@H]3O)[C@@H](O)[C@H]2O)c1 [NAD+] | 1350 µM | 727 µM |  | 
2 | N#Cc1c(O)nsc1Nc1ccccc1C(F)(F)F [TK138] |  |  | 2.7 µM | 2.9 µM
3 | CCOC(=O)Cn1sc2nc(C)cc(C)c2c1=O [TK142] |  |  |  | 1.8 µM
4 | Cn1c(=O)c(I)c(O)c2ccccc21 [TK210] |  |  |  | 4.6 µM
5 | O=c1[nH]sc2ccccc12 [TK222] |  |  |  | 3.2 µM
